# Data as given in US20130012432A1, “Peptides for Treatment of Obesity” (Novo Nordisk A/S, priority 2010, published 2013).
# Positions of bridges follow the written chain, without caps; N, C: chain ends. Non-standard residues stand in square brackets, D forms with d. Residues, ends and D or L forms follow the SMILES beside them. Groups on a side chain read outwards from the residue. *: point of attachment. Palmitoyl(16-(5-tetrazolyl)) = O=C(CCCCCCCCCCCCCCCc1nnn[nH]1)*; Lys(CH2CO2H)2 = N[C@@H](CCCCN(CC(=O)O)CC(=O)O)C(=O)O; X1 = O=C(O)CCCCCCCCCCCCCCCCC(=O)NCCOCCOCCN*; C18 diacid = O=C(O)CCCCCCCCCCCCCCCCC(=O)*; C17 diacid = O=C(O)CCCCCCCCCCCCCCCC(=O)*; NTA = O=C(O)CN(CC(=O)O)CC(=O)*; hCys = N[C@@H](CCS)C(=O)O; Orn = NCCC[C@H](N)C(=O)O; Dap = NC[C@H](N)C(=O)O; AEEA = NCCOCCOCC(=O)O
# Experiments:
# MC1 receptor = MC1 receptor (Homo sapiens, UniProt Q01726); assay: biochemical
# Chain of MC1 receptor (Q01726 whole entry): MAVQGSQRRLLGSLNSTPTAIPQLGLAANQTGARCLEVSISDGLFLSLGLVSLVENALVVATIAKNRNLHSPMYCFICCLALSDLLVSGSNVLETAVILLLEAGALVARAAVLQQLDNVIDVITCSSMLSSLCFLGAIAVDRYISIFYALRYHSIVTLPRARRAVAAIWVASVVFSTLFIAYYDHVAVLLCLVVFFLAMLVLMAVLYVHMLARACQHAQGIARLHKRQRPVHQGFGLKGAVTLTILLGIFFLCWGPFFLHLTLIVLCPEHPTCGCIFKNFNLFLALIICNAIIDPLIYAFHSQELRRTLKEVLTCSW
# Method in brief: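 Radioligand competition on membranes (25 μg/ml) of BHK cells stably expressing MC1, with 22 pM final 125I-NDP-α-MSH in 25 mM HEPES pH 7.4, Ca/Mg, EDTA, 0.1% HSA (or ovalbumin), 0.005% Tween 20. Incubated 90 min at 30 °C, filtered over PEI-treated GF/B; curves fitted by non-linear regression.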
# physchem = assay: physchem
# Procedure: From a stock solution in vehicle, either H2O or 10 mM phosphate, containing 1 mg (as weighed) compound per ml, 8-11 aliquots are withdrawn and pH-adjusted individually with HCl/NaOH, to cover the whole pH range.
compound,measurement,setting,value
"CC(=O)N[C@H]1CCCCNC(=O)C[C@@H](C(=O)N2CCC[C@H]2C(=O)N[C@@H](CO)C(=O)N[C@@H](CO)C(=O)N[C@@H](CO)C(=O)N[C@@H](CCCCN(CC(=O)O)CC(=O)O)C(=O)N[C@@H](CO)C(=O)N[C@@H](CO)C(=O)NCCOCCOCCNC(=O)CCCCCCCCCCCCCCCCC(=O)O)NC(=O)[C@H](Cc2c[nH]c3ccccc23)NC(=O)[C@H](CCCNC(=N)N)NC(=O)[C@@H](Cc2ccccc2)NC(=O)[C@H](Cc2c[nH]cn2)NC1=O [Example 53, Ac-c[Lys-His-D-Phe-Arg-Trp-Asp]-Pro-Ser-Ser-Ser-Lys(biscarboxymethyl)-Ser-Ser-NH(2-{2-[2-(17-carboxyheptadecanoylamino)ethoxy]ethoxy}ethyl)] (Ac-KH[dF]RWDPSSS[Lys(CH2CO2H)2]SS-X1; lactam 1-6)",Ki,MC1 receptor,> 10 µM
same,solubility,"physchem; pH 6.6, Solubility Conc., pH 6.6, vehicle 10 mM phosphate",82 µM
same,solubility,"physchem; pH 6.9, Solubility Conc., pH 6.9, vehicle 10 mM phosphate",159 µM
same,solubility,"physchem; pH 7.2, Solubility Conc., pH 7.2, vehicle 10 mM phosphate",337 µM
same,solubility,"physchem; pH 7.3, Solubility Conc., pH 7.3, vehicle 10 mM phosphate",396 µM
same,solubility,"physchem; pH 7.4, Solubility Conc., pH 7.4, vehicle 10 mM phosphate",410 µM
same,solubility,"physchem; pH 7.5, Solubility Conc., pH 7.5, vehicle 10 mM phosphate",385 µM
same,solubility,"physchem; pH 7.7, Solubility Conc., pH 7.7, vehicle 10 mM phosphate",393 µM
same,solubility,"physchem; pH 7.9, Solubility Conc., pH 7.9, vehicle 10 mM phosphate",425 µM
same,solubility,"physchem; pH 8.2, Solubility Conc., pH 8.2, vehicle 10 mM phosphate",403 µM
"CC(=O)N[C@H]1CCC(=O)NCCC[C@@H](C(=O)N2CCC[C@H]2C(=O)N2CCC[C@H]2C(=O)N[C@@H](CC(=O)O)C(=O)N[C@@H](CCCCN(CC(=O)O)CC(=O)O)C(=O)N[C@@H](CCCCNC(=O)COCCOCCNC(=O)CCCCCCCCCCCCCCCCC(=O)O)C(N)=O)NC(=O)[C@H](Cc2c[nH]c3ccccc23)NC(=O)[C@H](CCCNC(=N)N)NC(=O)[C@@H](Cc2ccccc2)NC(=O)[C@H](Cc2c[nH]cn2)NC1=O [Example 26, Ac-c[Glu-His-D-Phe-Arg-Trp-Orn]-Pro-Pro-Asp-Lys(biscarboxymethyl)-Lys({2-[2-(17-carboxyheptadecanoylamino)ethoxy]ethoxy}acetyl)-NH2] (Ac-EH[dF]RW[Orn]PPD[Lys(CH2CO2H)2]K([AEEA-C18 diacid])-NH2; lactam 1-6)",Ki,MC1 receptor,> 10 µM
same,solubility,"physchem; pH 5.5, Solubility Conc.",49 µM
same,solubility,"physchem; pH 5.8, Solubility Conc.",325 µM
same,solubility,"physchem; pH 6.1, Solubility Conc.",474 µM
same,solubility,"physchem; pH 6.5, Solubility Conc.",478 µM
same,solubility,"physchem; pH 6.8, Solubility Conc.",461 µM
same,solubility,"physchem; pH 7.1, Solubility Conc.",476 µM
same,solubility,"physchem; pH 7.4, Solubility Conc.",482 µM
same,solubility,"physchem; pH 7.7, Solubility Conc.",474 µM
same,solubility,"physchem; pH 7.9, Solubility Conc.",478 µM
"CC(=O)N[C@H]1CCSSC[C@@H](C(=O)N2CCC[C@H]2C(=O)N2CCC[C@H]2C(=O)N[C@@H](CCCCN)C(=O)N[C@@H](CC(=O)O)C(=O)N[C@@H](CNC(=O)CN(CC(=O)O)CC(=O)O)C(=O)N[C@@H](CCCCNC(=O)COCCOCCNC(=O)CCCCCCCCCCCCCCCc2nnn[nH]2)C(N)=O)NC(=O)[C@H](Cc2c[nH]c3ccccc23)NC(=O)[C@H](CCCNC(=N)N)NC(=O)[C@@H](Cc2ccccc2)NC(=O)[C@H](CCC(N)=O)NC1=O [Example 66, Ac-c[homoCys-Gln-D-Phe-Arg-Trp-Cys]-Pro-Pro-Lys-Asp-Dap(BCMA)-Lys[(2-{2-[16-(tetrazol-5-yl)hexadecanoylamino]ethoxy}ethoxy)acetyl]-NH2] (Ac-[hCys]Q[dF]RWCPPKD[Dap](NTA)K([AEEA-Palmitoyl(16-(5-tetrazolyl))])-NH2; disulfide 1-6)",Ki,MC1 receptor,> 10 µM
same,solubility,"physchem; pH 4.8, Solubility Conc.",38 µM
same,solubility,"physchem; pH 6.4, Solubility Conc.",390 µM
same,solubility,"physchem; pH 6.5, Solubility Conc.",474 µM
same,solubility,"physchem; pH 6.7, Solubility Conc.",447 µM
same,solubility,"physchem; pH 6.9, Solubility Conc.",455 µM
same,solubility,"physchem; pH 7.2, Solubility Conc.",461 µM
same,solubility,"physchem; pH 7.4, Solubility Conc.",478 µM
same,solubility,"physchem; pH 7.6, Solubility Conc.",507 µM
same,solubility,"physchem; pH 8.1, Solubility Conc.",499 µM
"CC(=O)N[C@H]1CCCNC(=O)CC[C@@H](C(=O)N2CCC[C@H]2C(=O)N2CCC[C@H]2C(=O)N[C@@H](Cc2c[nH]cn2)C(=O)N[C@@H](CCC(=O)O)C(=O)N[C@@H](CCCCN(CC(=O)O)CC(=O)O)C(=O)N[C@@H](CCCCNC(=O)COCCOCCNC(=O)CCCCCCCCCCCCCCCC(=O)O)C(N)=O)NC(=O)[C@H](Cc2c[nH]c3ccccc23)NC(=O)[C@H](CCCNC(=N)N)NC(=O)[C@@H](Cc2ccccc2)NC(=O)[C@H](Cc2c[nH]cn2)NC1=O [Example 22, Ac-c[Orn-His-D-Phe-Arg-Trp-Glu]-Pro-Pro-His-Glu-Lys(biscarboxymethyl)-Lys({2-[2-(16-carboxyhexadecanoylamino)ethoxy]ethoxy}acetyl)-NH2] (Ac-[Orn]H[dF]RWEPPHE[Lys(CH2CO2H)2]K([AEEA-C17 diacid])-NH2; lactam 1-6)",Ki,MC1 receptor,> 10 µM
same,solubility,"physchem; pH 6.1, Solubility Conc.",134 µM
same,solubility,"physchem; pH 6.3, Solubility Conc.",173 µM
same,solubility,"physchem; pH 6.7, Solubility Conc.",284 µM
same,solubility,"physchem; pH 6.8, Solubility Conc.",444 µM
same,solubility,"physchem; pH 6.9, Solubility Conc.",443 µM
same,solubility,"physchem; pH 7.2, Solubility Conc.",447 µM
same,solubility,"physchem; pH 7.4, Solubility Conc.",438 µM
same,solubility,"physchem; pH 8, Solubility Conc.",468 µM
